Data on seven compounds can be found in US7838536B2, “Water-soluble zinc ionophores, zinc chelators, and/or zinc complexes and use for treating cancer” (priority 2006, dated 2010).

Data set [1] has as its system cancer cells. Briefly: intracellular free zinc in cancer cells. The class given is cell-based. As to conditions: previously found. The protocol: The concentration of intracellular free zinc is assessed using the ion-specific fluorescent probe, FluoZin-3-AM-(FluoZin-3, Molecular Probes, Inc.). […] Following treatment, cells are isolated by centrifugation. Cell pellets are washed and re-suspended in a solution of 0.5% BSA in PBS. An aliquot of 10^6 cells (200 μL) is removed, centrifuged, and treated with FluoZin-3 reaction buffer An aliquot of the cell suspension is supplemented with 2 μg/mL propidium iodide (Sigma Biochemical), incubated for 5 minutes, and subjected to two-parameter flow cytometric analysis. See, e.g., FIG. 27.

The conditions of data set [2]: zinc binding motif, well known; cited from earlier work.
The conditions of data set [3]: cited from earlier work.
Data set [4] has as its system cancer cells. The note with it: reported; cited from earlier work.
Data set [5] relates to cell lines including A549 lung, PC3 prostate, K1 and E89 Chinese hamster ovary (CHO), Ramos, DHL-4, and HF-1 B-cell lymphoma. Briefly: standard tetrazolide reduction proliferation assay. The class given is cell-based. As to conditions: ZnHPT formed in situ from HPT and zinc.
Procedure: The proliferation of exponential phase cultures of A549 and PC3 cells is assessed by formazan reduction. In brief, A549 (2000 cells/well) or PC3 (4000 cells/well) cells are seeded on 96-well microtiter plates and allowed to adhere overnight. Stock solutions of ZnHPT or PEGZnHPT in medium are serial diluted in a ratio of 1:4 down the plate. Stock solutions of MGd or ZnOAc2 or 5% mannitol in ACS grade water are added and plates are incubated at 37° C. under a 5% CO2/95% air atmosphere. After 24 hours, medium is replaced with fresh medium. After 2 additional days, medium is exchanged for fresh medium (150 μL/well) supplemented with the tetrazolium dye, 3-(4,5-dimethylthiazol-2-yl)-2,5-diphenyltetrazolium bromide (MTT, Sigma Chemical, 0.5 mg/mL). Plates are incubated at 37° C. and viable cells measured. […] Alternatively cellular reduction within plateau phase cultures is measured after 24 hours of treatment as a measure of the cytotoxicity due to treatment.
Another data set has as its system thioredoxin reductase. The note with it: cells co-treated with MGd and ZnHPT, previously found.
Data set [6] has as its system A549 human lung cancer cells. The note with it: A549 xenograft, FIG. 28. How it is done: (§1) Human cell lines (A549 lung carcinoma, PC3 and DU145 prostatic carcinoma, and potentially others) were used. Mice received XRT (whole body radiation) up to 2 days prior to inoculation to minimize tumor regression due to residual immunological systems. The animal was administered a sub-lethal dose of whole body radiation of up to 4.5 Gy. The published literature indicates the LD50/30 dose for whole body radiation in the mouse to be 6.2 Gy. At the time of tumor implantation, mice were anesthetized by isoflurane inhalation or by IP injection of a ketamine/xylazine cocktail. Using vernier calipers, tumor size was measured; and tumor volume calculated on day 0 of study, at a minimum of 2-3 times/week and immediately prior to scheduled sacrifice. The tumor volume was estimated using the formula for a prolate ellipsoid: V=[(length)×(width)^2]/2 or hemi-ellipsoid: V=π/6×(length)×(width)×(height). When tumors reached a predetermined tumor volume animals were divided into treatment groups followed by test/control article dosing. Maximum allowable tumor burden prior to sacrifice is a mean surface diameter of 20 mm or not more than 10% of the animal's body weight as described in the NIH tumor burden guidelines for mice.

Data set [7] deals with PC3 prostate cancer cells. The note with it: PC3 xenograft. How it is done:
as §1
In this example, the ionophore was formulated in 5% mannitol.

For data set [8] the following is noted: mouse, in vivo.
Data set [9] concerns DU145 prostate cancer cells. The note with it: DU145 xenograft, intravenous 60 μmol/kg q.d.×4, formulated in 30% THPB-P beta-cyclodextrin vehicle, FIG. 31. The protocol:
as §1

Where two headings read alike, the source gives them in different places.

Procedure for thioredoxin reductase: Thioredoxin reductase activity is assessed by measuring the rate of lipoate reduction. In brief, A549 or PC3 cells (10,000 cells/well) are plated on 96-well plates and allowed to adhere overnight and grow two additional days until confluent. Cells are treated with ZnHPT, PEGZnHPT, MGd, zinc, or 5% mannitol as above for 4 hours. Medium is removed, cells are washed with Hanks Balanced Salt Solution (HBSS), and a solution of 5 mM lipoic acid and 1 mM 5,5′-dithiobis(2-nitrobenzoic acid) in HBSS (100 μL/well) is added. Plates are incubated at ambient temperature in the dark. At chosen time intervals, plate absorbance is measured at 405-650 nm. Plate absorbances are normalized to wells containing neither exogenous zinc nor texaphyrin complex to allow plate-to-plate comparison.

`CC(=O)[O-].CC(=O)[O-].CCc1c(CC)c2cc3nc(cnc4cc(OCCOCCOCCOC)c(OCCOCCOCCOC)cc4ncc4nc(cc1[n-]2)C(CCCO)=C4C)C(C)=C3CCCO.O.[Gd+3]` [MGd, motexafin gadolinium]: the intracellular free zinc entry in the data set with cancer cells [1] is given as “increased intracellular free zinc”.

Turning to `On1ccccc1=S` [HPT], the logKβ2 in [2] is 5.4.

In the case of `On1ccccc1=S` [ZnHPT, 1-hydroxypyridine-2-thione], the bioavailability entry in data set [3] (oral, typically formulated as a suspension in vegetable oil) was “poorly bioavailable”. Further, the “toxicity on oral administration” value in data set [3] (orally administered to laboratory animals) was “not found to be particularly toxic”. Further, the “growth of cancer cells in culture” value in the data set with cancer cells [4] is on record as “inhibit the growth of cancer cells in culture”. Moreover, in data set [5], the inhibition of proliferation entry is “inhibits proliferation in a dose dependent manner”. For the same compound, the “inhibition of thioredoxin reductase” value in the data set on thioredoxin reductase was “synergistic inhibition”.

As to Zinquin, the logKβ2 result in data set [2] is “ca. 18”.

With `COCCOCCOCCOCc1ccc([S-])[n+]([O-])c1.COCCOCCOCCOCc1ccc([S-])[n+]([O-])c1.[Zn+2]` [5-PEG-[3]-ZnHPT, 2-thiol-5-((2-(2-(2-methoxyethoxy)ethoxy)ethoxy)methyl)pyridine-N-oxide, Zn complex], the “anticancer activity (tumor regrowth)” value in data set [6] (in combination with MGd), in data set [6] (without MGd) and in data set [7] (FIG. 29) was “significant anticancer activity” throughout. For the same compound, the “maximum tested without evidence of toxicity” value in data set [8] is ≥ 120 µmol/kg.

Consider “2-thiol-5-((2-methoxyethoxy)methyl)pyridine-N-oxide, Zn complex [5-PEG-[1]-ZnHPT]”, for which the “anticancer activity (tumor regrowth) as compared to control vehicle” value in [9] is recorded as “significant anticancer activity”.

Take “2-thiol-5-((2-(2-methoxyethoxy)ethoxy)methyl)pyridine-N-oxide, Zn complex [5-PEG-[2]-ZnHPT]”: the “anticancer activity (tumor regrowth) as compared to control vehicle” value in data set [7] (intravenous 100 μmol/kg q.d.×2 and q.d.×4, formulated in 5% mannitol, FIG. 30) was “significant anticancer activity”.
